According to patent publication US10047051B2, “Substituted pyridines and method of use” (AbbVie S.á{acute over (.)}r.l., priority 2015, dated 2018):

Assays:
CFTR ΔF508 mutant = biological target: T1, CFTR ΔF508 mutant (Homo sapiens, UniProt P13569, DEL508-508); test: YFP-halide influx assay for the CFTR-ΔF508 mutation (CFBE41o- cells); format: cell-based; details: forskolin 10.67 μM; for EC50: from (1−F/F0) vs concentration plot
T1 construct: expressed in transfected cells; host or cells: CFBE41o- cells, adenoviral transduction
T1 sequence (P13569 with tags, fused parts or gaps DEL508-508): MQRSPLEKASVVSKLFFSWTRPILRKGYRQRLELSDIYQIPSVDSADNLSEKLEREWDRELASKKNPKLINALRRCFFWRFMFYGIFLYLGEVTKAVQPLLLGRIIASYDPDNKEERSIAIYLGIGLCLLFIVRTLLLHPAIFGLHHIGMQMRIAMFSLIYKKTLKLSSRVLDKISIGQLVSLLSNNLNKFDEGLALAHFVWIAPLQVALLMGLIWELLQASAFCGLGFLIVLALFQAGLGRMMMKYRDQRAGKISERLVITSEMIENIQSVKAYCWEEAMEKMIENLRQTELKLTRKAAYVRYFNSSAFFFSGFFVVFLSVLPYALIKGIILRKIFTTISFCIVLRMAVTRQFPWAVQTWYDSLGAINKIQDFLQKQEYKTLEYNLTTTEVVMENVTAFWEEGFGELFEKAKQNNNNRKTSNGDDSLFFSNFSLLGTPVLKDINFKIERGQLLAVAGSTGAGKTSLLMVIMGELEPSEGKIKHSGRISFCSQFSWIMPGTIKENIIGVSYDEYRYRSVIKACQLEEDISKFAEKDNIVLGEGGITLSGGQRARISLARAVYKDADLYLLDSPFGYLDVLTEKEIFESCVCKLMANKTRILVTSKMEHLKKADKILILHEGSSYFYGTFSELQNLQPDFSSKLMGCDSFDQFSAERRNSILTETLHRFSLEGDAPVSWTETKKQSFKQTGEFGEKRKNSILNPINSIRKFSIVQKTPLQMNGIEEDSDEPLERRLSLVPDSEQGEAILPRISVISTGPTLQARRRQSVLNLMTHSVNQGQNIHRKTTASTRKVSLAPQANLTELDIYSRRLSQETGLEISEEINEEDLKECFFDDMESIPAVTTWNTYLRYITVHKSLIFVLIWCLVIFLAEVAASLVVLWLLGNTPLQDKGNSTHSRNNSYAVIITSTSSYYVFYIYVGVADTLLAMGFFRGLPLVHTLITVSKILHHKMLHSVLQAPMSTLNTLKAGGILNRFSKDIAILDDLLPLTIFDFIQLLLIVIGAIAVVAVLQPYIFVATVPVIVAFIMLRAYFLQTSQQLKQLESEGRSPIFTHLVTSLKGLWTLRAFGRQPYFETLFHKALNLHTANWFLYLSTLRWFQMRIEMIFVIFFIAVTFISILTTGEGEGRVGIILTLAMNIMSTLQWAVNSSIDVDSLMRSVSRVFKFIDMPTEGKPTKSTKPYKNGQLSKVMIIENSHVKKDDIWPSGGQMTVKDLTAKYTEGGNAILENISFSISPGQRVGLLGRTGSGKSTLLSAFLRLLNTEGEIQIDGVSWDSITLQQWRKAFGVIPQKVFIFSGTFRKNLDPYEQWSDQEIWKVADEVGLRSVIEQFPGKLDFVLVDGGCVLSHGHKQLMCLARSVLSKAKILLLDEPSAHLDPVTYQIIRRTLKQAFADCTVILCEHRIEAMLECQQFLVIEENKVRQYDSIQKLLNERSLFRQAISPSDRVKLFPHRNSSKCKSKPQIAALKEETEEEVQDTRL
Summary of the method: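 CFBE41o- cells transduced with adenovirus expressing CFTR ΔF508 and halide-sensitive YFP H148Q/I152L/F47L, then held 24 h at 27° C or with a CFTR modulator 24 h at 37° C. Iodide-induced quench recorded 2 min; EC50 from (1−F/F0) at 36 s versus concentration.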

CFTR G551D mutant = biological target: T2, CFTR G551D mutant (Homo sapiens, UniProt P13569, G551D); test: YFP-halide influx assay for the CFTR-G551D mutation (HEK293 cells); format: cell-based; details: forskolin 10.67 μM
T2 construct: expressed in transfected cells; host or cells: HEK293 cells, reverse transfection with plasmids
T2 sequence (P13569 whole entry G551D): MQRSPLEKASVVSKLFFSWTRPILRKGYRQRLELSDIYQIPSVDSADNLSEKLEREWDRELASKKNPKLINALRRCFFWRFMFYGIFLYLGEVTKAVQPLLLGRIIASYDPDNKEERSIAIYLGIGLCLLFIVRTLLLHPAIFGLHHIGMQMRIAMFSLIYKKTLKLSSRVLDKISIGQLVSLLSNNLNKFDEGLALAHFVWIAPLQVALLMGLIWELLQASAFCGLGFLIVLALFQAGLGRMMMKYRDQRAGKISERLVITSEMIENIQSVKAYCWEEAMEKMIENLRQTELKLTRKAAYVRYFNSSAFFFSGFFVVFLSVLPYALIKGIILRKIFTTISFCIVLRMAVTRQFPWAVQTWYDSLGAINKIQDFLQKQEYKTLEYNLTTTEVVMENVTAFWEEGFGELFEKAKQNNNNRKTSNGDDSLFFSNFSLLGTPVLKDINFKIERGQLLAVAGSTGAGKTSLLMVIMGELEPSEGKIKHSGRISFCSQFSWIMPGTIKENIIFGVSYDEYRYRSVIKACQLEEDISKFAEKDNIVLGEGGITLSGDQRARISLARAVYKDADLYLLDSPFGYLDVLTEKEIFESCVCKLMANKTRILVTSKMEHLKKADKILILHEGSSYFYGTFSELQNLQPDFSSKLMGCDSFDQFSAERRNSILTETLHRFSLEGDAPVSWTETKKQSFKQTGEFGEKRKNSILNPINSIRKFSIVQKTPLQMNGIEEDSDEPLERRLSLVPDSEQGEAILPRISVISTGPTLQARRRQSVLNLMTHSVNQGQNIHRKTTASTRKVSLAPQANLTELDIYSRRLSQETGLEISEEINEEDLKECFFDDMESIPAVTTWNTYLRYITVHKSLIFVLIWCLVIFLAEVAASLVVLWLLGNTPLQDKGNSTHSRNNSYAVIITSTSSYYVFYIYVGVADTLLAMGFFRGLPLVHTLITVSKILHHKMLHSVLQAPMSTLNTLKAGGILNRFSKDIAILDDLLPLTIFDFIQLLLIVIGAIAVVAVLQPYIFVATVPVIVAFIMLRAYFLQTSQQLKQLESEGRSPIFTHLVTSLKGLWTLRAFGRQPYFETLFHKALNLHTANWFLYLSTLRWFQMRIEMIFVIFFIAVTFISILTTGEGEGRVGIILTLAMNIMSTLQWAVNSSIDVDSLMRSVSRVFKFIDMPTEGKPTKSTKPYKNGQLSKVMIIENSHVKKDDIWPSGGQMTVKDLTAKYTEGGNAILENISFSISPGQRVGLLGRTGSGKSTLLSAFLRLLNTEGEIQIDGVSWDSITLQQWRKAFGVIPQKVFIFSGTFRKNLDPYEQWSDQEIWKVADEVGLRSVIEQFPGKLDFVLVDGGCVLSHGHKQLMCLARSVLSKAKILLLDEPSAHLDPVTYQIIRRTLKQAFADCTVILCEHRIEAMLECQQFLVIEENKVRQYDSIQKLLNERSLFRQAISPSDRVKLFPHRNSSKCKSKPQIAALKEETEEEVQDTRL
Summary of the method: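 HEK293 cells reverse-transfected with CFTR G551D and halide-sensitive YFP (H148Q/I152L/F47L), expressed 24 h at 37 °C. YFP fluorescence quenching recorded for 7 s after I⁻ injection. Response = 1−F/F0; EC50 derived from 1−F/F0 vs compound concentration.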

% Activation (CFTR ΔF508 mutant) | EC50 (CFTR ΔF508 mutant) | % Activation (CFTR G551D mutant) | EC50 (CFTR G551D mutant) | Structure (SMILES)
96.6% | 61.2 nM | 40.6% | 5770 nM | Nc1cc(S(=O)(=O)N2CCOCC2)cnc1C(=O)NCC(O)C(F)(F)F (centres unmarked) [Compound 139, 3-amino-5-(morpholin-4-ylsulfonyl)-N-(3,3,3-trifluoro-2-hydroxypropyl)pyridine-2-carboxamide]
58.5% | > 667 nM | 14.4% |  | Nc1cc(S(=O)(=O)c2ccc(C(F)(F)F)cc2)cnc1C(=O)N[C@@H]1COCC[C@@H]1O [Compound 235, 3-amino-N-[(3R,4S)-4-hydroxytetrahydro-2H-pyran-3-yl]-5-{[4-(trifluoromethyl)phenyl]sulfonyl}pyridine-2-carboxamide]
76.0% | 213 nM | 6.51% | 2000 nM | CC(C)S(=O)(=O)c1cc(N)c(C(=O)NC[C@H](C)O)nc1-c1ccc(F)cc1 [Compound 264, 3-amino-6-(4-fluorophenyl)-N-[(2S)-2-hydroxypropyl]-5-(propan-2-ylsulfonyl)pyridine-2-carboxamide]
99.1% | 2.8 nM | 71.8% | 705 nM | CN(Cc1ccc(F)cc1)S(=O)(=O)c1cnc(C(=O)NCC(O)C(F)(F)F)c(N)c1 (centres unmarked) [Compound 187, 3-amino-5-[(4-fluorobenzyl)(methyl)sulfamoyl]-N-(3,3,3-trifluoro-2-hydroxypropyl)pyridine-2-carboxamide]
87.8% | 135 nM | 40.8% | > 3330 nM | CO[C@H]1CCC[C@@H]1NC(=O)c1ncc(S(=O)(=O)c2ccc(C(F)(F)F)cc2)cc1N [Compound 293, 3-amino-N-[(1S,2S)-2-methoxycyclopentyl]-5-{[4-(trifluoromethyl)phenyl]sulfonyl}pyridine-2-carboxamide]
97.0% | 22.6 nM | 71.9% | 2300 nM | COCCC(C)(O)CNC(=O)c1ncc(S(=O)(=O)c2ccc(C(F)(F)F)cc2F)cc1N (centres unmarked) [Compound 163, 3-amino-5-{[2-fluoro-4-(trifluoromethyl)phenyl]sulfonyl}-N-(2-hydroxy-4-methoxy-2-methylbutyl)pyridine-2-carboxamide]
97.1% | 245 nM | 31.0% |  | C[C@H](O)CNC(=O)c1nc(OCCN(C)C)c(S(=O)(=O)c2ccc(OC(F)(F)F)cc2)cc1N [Compound 289, 3-amino-6-[2-(dimethylamino)ethoxy]-N-[(2S)-2-hydroxypropyl]-5-{[4-(trifluoromethoxy)phenyl]sulfonyl}pyridine-2-carboxamide]
115.5% | 3.6 nM | 77.2% | 364 nM | Nc1cc(S(=O)(=O)c2cccc(OC(F)(F)F)c2)cnc1C(=O)NCC(O)C(F)(F)F (centres unmarked) [Compound 236, 3-amino-N-(3,3,3-trifluoro-2-hydroxypropyl)-5-{[3-(trifluoromethoxy)phenyl]sulfonyl}pyridine-2-carboxamide]
16.9% | > 1000 nM | 3.0% | > 5000 nM | Nc1cc(S(=O)(=O)c2ccc(OC(F)(F)F)cc2)cnc1C(=O)NC1COC1 [Compound 151, 3-amino-N-(oxetan-3-yl)-5-{[4-(trifluoromethoxy)phenyl]sulfonyl}pyridine-2-carboxamide]
44.9% | 1390 nM | 5.4% | > 10000 nM | Nc1cc(S(=O)(=O)c2ccc(C(F)(F)F)cc2)cnc1C(=O)N1CCC[C@@H]1CO [Compound 233, (3-amino-5-{[4-(trifluoromethyl)phenyl]sulfonyl}pyridin-2-yl) [(2R)-2-(hydroxymethyl)pyrrolidin-1-yl]methanone]
87.3% | 162 nM | 16.6% | > 1000 nM | C[C@H](O)CNC(=O)c1nc(-c2ccc(F)cc2)c(S(=O)(=O)C2CCCC2)cc1N [Compound 261, 3-amino-5-(cyclopentanesulfonyl)-6-(4-fluorophenyl)-N-[(2S)-2-hydroxypropyl]pyridine-2-carboxamide]
102.0% | 16.9 nM | 71.6% | 791 nM | COc1ccc(S(=O)(=O)c2cnc(C(=O)NCC(O)C(F)(F)F)c(N)c2)cc1 (centres unmarked) [Compound 220, 3-amino-5-[(4-methoxyphenyl)sulfonyl]-N-(3,3,3-trifluoro-2-hydroxypropyl)pyridine-2-carboxamide]
8.9% | > 1000 nM | 5.5% | > 1000 nM | C[C@H](O)CNC(=O)c1nc(-c2ccc(F)cc2)c(S(=O)(=O)CCO)cc1N [Compound 262, 3-amino-6-(4-fluorophenyl)-5-[(2-hydroxyethyl)sulfonyl]-N-[(2S)-2-hydroxypropyl]pyridine-2-carboxamide]
93.8% | 36.2 nM | 39.3% | > 10000 nM | Nc1cc(S(=O)(=O)c2ccc(C(F)(F)F)cc2)cnc1C(=O)NCC(F)(F)F [Compound 209, 3-amino-N-(2,2,2-trifluoroethyl)-5-{[4-(trifluoromethyl)phenyl]sulfonyl}pyridine-2-carboxamide]

More lines, now with the values behind:

Structure (SMILES) | % Activation (CFTR ΔF508 mutant) | EC50 (CFTR ΔF508 mutant) | % Activation (CFTR G551D mutant) | EC50 (CFTR G551D mutant)
Nc1cc(S(=O)(=O)c2ccc(OC(F)(F)F)cc2)cnc1C(=O)N1CC(N2CCOCC2)C1 [Compound 60, (3-amino-5-{[4-(trifluoromethoxy)phenyl]sulfonyl}pyridin-2-yl)[3-(morpholin-4-yl)azetidin-1-yl]methanone] | 105.0% | 67.2 nM | 71.1% | 3120 nM
CC1(C)CN(C(=O)c2ncc(S(=O)(=O)c3ccc(OC(F)(F)F)cc3F)cc2N)C1 [Compound 134, (3-amino-5-{[2-fluoro-4-(trifluoromethoxy)phenyl]sulfonyl}pyridin-2-yl)(3,3-dimethylazetidin-1-yl)methanone] | 101.6% | 43.5 nM | 76.8% | 1130 nM
Nc1cc(S(=O)(=O)c2ccc(C(F)(F)F)cc2F)cnc1C(=O)NC[C@H]1CCOC1 [Compound 106, 3-amino-5-{[2-fluoro-4-(trifluoromethyl)phenyl]sulfonyl}-N-[(3R)-tetrahydrofuran-3-ylmethyl]pyridine-2-carboxamide] | 99.0% | 19.5 nM | 42.4% | > 3330 nM
Nc1cc(S(=O)(=O)c2ccc(OC(F)(F)F)cc2)cnc1C(=O)N1CCC(O)C1 (centres unmarked) [Compound 4, (3-amino-5-{[4-(trifluoromethoxy)phenyl]sulfonyl}pyridin-2-yl)(3-hydroxypyrrolidin-1-yl)methanone] | 92.1% | 206 nM | 43.6% | 5770 nM
Nc1cc(S(=O)(=O)c2ccc(OC(F)(F)F)cc2)cnc1C(=O)NC1CC(F)(F)C1 [Compound 122, 3-amino-N-(3,3-difluorocyclobutyl)-5-{[4-(trifluoromethoxy)phenyl]sulfonyl}pyridine-2-carboxamide] | 83.2% | 35.3 nM | 50.9% | 425 nM
CC(C)NC(=O)CNC(=O)c1ncc(S(=O)(=O)c2ccc(C(F)(F)F)cc2)cc1N [Compound 104, 3-amino-N-[2-oxo-2-(propan-2-ylamino)ethyl]-5-{[4-(trifluoromethyl)phenyl]sulfonyl}pyridine-2-carboxamide] | 100.8% | 18.9 nM | 26.1% | > 10000 nM
Nc1cc(S(=O)(=O)c2ccc(F)cc2)cnc1C(=O)NCC1(O)CC1 [Compound 30, 3-amino-5-[(4-fluorophenyl)sulfonyl]-N-[(1-hydroxycyclopropyl)methyl]pyridine-2-carboxamide] | 94.6% | 53.7 nM | 36.4% | 5770 nM
CC(C)(CCO)CNC(=O)c1ncc(S(=O)(=O)c2ccc(OC(F)(F)F)cc2)cc1N [Compound 34, 3-amino-N-(4-hydroxy-2,2-dimethylbutyl)-5-{[4-(trifluoromethoxy)phenyl]sulfonyl}pyridine-2-carboxamide] | 99.0% | 91.1 nM | 70.2% | 1480 nM
C[C@H](O)CNC(=O)c1ncc(S(=O)(=O)c2ccc(C(F)(F)F)cc2F)cc1N [Compound 98, 3-amino-5-{[2-fluoro-4-(trifluoromethyl)phenyl]sulfonyl}-N-[(2S)-2-hydroxypropyl]pyridine-2-carboxamide] | 95.6% | 7.4 nM | 60.2% | 685 nM
Nc1cc(S(=O)(=O)c2ccc(OC(F)(F)F)cc2)cnc1C(=O)NC[C@@H](O)CO [Compound 50, 3-amino-N-[(2R)-2,3-dihydroxypropyl]-5-{[4-(trifluoromethoxy)phenyl]sulfonyl}pyridine-2-carboxamide] | 90.8% | 57.5 nM | 23.5% | > 10000 nM
Nc1cc(S(=O)(=O)c2ccc(OC(F)(F)F)cc2)cnc1C(=O)NCC1(O)CCOCC1 [Compound 29, 3-amino-N-[(4-hydroxytetrahydro-2H-pyran-4-yl)methyl]-5-{[4-(trifluoromethoxy)phenyl]sulfonyl}pyridine-2-carboxamide] | 94.1% | 54.6 nM | 58.7% | 1500 nM
